Test results from patent US11938129B2, “Methods and compositions for the treatment of vascular disease” (THE GENERAL HOSPITAL CORPORATION, priority 2018, dated 2024).

What was measured:
[1] = system: PDGFR; assay: immunofluorescence of p-PDGFR in ligated carotid; format: in vivo, mouse; details: media and intima of carotid arteries
Method: All mice used in this study were cared for under strict compliance with the Partners Institutional Animal Care and Use Committee (IACUC), regulated by the United States Public Health Service (USPHS). Carotid ligations were performed in 10 week old mice. Briefly, animals were anesthetized using intraperitoneal ketamine/xylazine (80 and 12 mg/kg, respectively) followed by a small incision in the neck to expose the carotid artery. Then the left carotid was ligated at the carotid bifurcation level using a 8-0 silk suture. At 21 days mice were sacrificed and carotids were collected for histological analysis. Approximately 98% of wild type mice developed stenotic lesions. Mice that developed thrombosis of the ligated carotid were excluded from the study (−1¬2%). Malatl knockout mice were kindly provided by Dr. David Spector (Cold Spring Harbor, N.Y.). Hdac9 flox/flox/Talgn-cre mice were generated as previously reported (10). […]
Left and right carotids were cryosectioned using OCT standard protocol and sectioning. […] Slides 1, 5, 10, and 15 were H&E stained for quantification of neointima. For quantification of the neointima, internal and external elastic lamina perimeters and medial thickness from 4 quadrants were measured and averaged using Image J software from the National Institutes of Health (NIH). […]

[2] = system: VSMCs; assay: cytoskeletal architecture of VSMCs treated with GSK343; format: cell-based, mouse
Method: Primary human aortic smooth muscle cells (HAoSMC) from healthy donors were purchased from Cell Applications Inc., California, USA (Cat. #354K-05a). Primary aneurysm aortic SMCs were isolated from fresh TAA tissue at the moment of surgery by standard explant of the aortic media. Mouse aortic SMCs were isolated by standard explant of the ascending section of the aortas from wild-type or Fbn1ci°39G1+ mice. Smooth muscle cell identity was assessed by immunofluorescence staining of contractile markers including SM22a, Calponin, Smoothelin and Vinculin. In order to preserve cell identity all experiments were carried out at passages 1-5 (Timraz et al., 2016). Human and murine SMCs were grown with smooth muscle cell growth medium from Cell Applications Inc. (Cat. #311-500). […] Fresh media containing GSK343 was supplied daily. For GSK343/TGF81 (10 ng/mL) combo treatment, cells were first treated with complete media containing GSK343 at concentration of 10 nM during the 2 first days followed by GSK343/TGFβ combination treatment the next 2 days. Prior to cellular collection cells were washed with sterile PBS and RNA or protein extraction were performed as described above.

[3] = system: H3K27 methylation in HCC1806 cells; details: read-out: IC50 for inhibition of H3K27 methylation; cited from earlier work

CCCc1cc(C)[nH]c(=O)c1CNC(=O)c1cc(-c2ccnc(N3CCN(C)CC3)c2)cc2c1cnn2C(C)C [GSK343]
phosphorylation of PDGFR [1]: dramatic reduction
cytoskeletal architecture [2]: improved cytoskeletal architecture
IC50 [3]: < 200 nM
